Results: patent publication US20230271950A1, “ANTIBACTERIAL PICOLINAMIDE COMPOUNDS” (University of Notre Dame Du Lac, priority 2020, published 2023)
In brackets after ≈: the same amount, converted by molar mass. Where two headings read alike, the source gives them in different places.

Tests used:
E. faecium NCTC7171 = test: MIC against E. faecium; assay type: cell-based, Enterococcus faecium; conditions: E. faecium NCTC 7171; for MIC: Enterococcus faecium, NCTC7171, Table 10, unit inferred, read-out: Activity (MIC) against E. faecium
S. aureus ATCC29213 = test: MIC against MSSA; assay type: cell-based, Staphylococcus aureus; conditions: MSSA ATCC 29213; for MIC: Staphylococcus aureus, Table 10, unit inferred, read-out: Activity (MIC) against S. aureus
C. difficile = test: MIC by broth microdilution against C. difficile strains; assay type: cell-based, Clostridioides difficile; conditions: for MIC: Clostridioides difficile, ATCC43255, ATCC 43255, ribotype 087, read-out: MIC C. difficile; for Selectivity: MIC MRSA/MIC C. difficile, Table 3
MRSA (NRS70, NRS119) = test: MIC against MRSA strains; assay type: cell-based, Staphylococcus aureus; conditions: NRS70 strain; for MIC: Staphylococcus aureus, read-out: MIC MRSA

SMILES	MIC (E. faecium NCTC7171) [µg/mL]	MIC (S. aureus ATCC29213) [µg/mL]	MIC (C. difficile; Table 3 (SAR^2 and SAR^3)) [µg/mL]	MIC (MRSA (NRS70, NRS119); Table 3 (SAR^2 and SAR^3)) [µg/mL]	Activity (MIC) against E. faecium (E. faecium NCTC7171; Table 10, unit not given)	MIC C. difficile (C. difficile; ATCC 43255, ribotype 087, Table 2 (SAR^1)) [µg/mL]	MIC MRSA (MRSA (NRS70, NRS119); Table 2 (SAR^1)) [µg/mL]	Activity (MIC) against S. aureus (S. aureus ATCC29213; Table 10, unit not given)	MIC (C. difficile; Table 2 (SAR^1)) [µg/mL]	MIC (MRSA (NRS70, NRS119); Table 2 (SAR^1)) [µg/mL]	Selectivity (C. difficile)
O=C(Nc1ncco1)c1ccnc(-c2ccc(F)cc2)c1 [Compound 36, 2-(4-Fluorophenyl)-N-(oxazol-2-yl)isonicotinamide]	8 (≈ 28.2 µM)	4 (≈ 14.1 µM)	2 (≈ 7.06 µM)	4 (≈ 14.1 µM)	–	–	–	–	–	–	2
CN(C)C(=O)c1cnc(NC(=O)c2ccnc(-c3ccc(Cl)c(Cl)c3)c2)o1 [Compound 28, (2-(3,4-Dichlorophenyl)isonicotinamido)-N,N-dimethyloxazole-5-carboxamide]	–	–	–	–	8	0.5 (≈ 1.23 µM)	4 (≈ 9.87 µM)	2	–	–	–
O=C(Nc1ncco1)c1ccnc(-c2cccc(F)c2)c1 [Compound 37, 2-(3-Fluorophenyl)-N-(oxazol-2-yl)isonicotinamide]	4 (≈ 14.1 µM)	2 (≈ 7.06 µM)	1 (≈ 3.53 µM)	2 (≈ 7.06 µM)	–	–	–	–	–	–	2
O=C(Nc1ncco1)c1ccnc(Oc2cccc(OC(F)(F)F)c2)c1 [Compound 105, N-(Oxazol-2-yl)-2-(3-(trifluoromethoxy)phenoxy)isonicotinamide]	16 (≈ 43.8 µM)	1 (≈ 2.74 µM)	–	–	–	–	–	–	–	–	–
O=C(Nc1ncco1)c1ccnc(OCC(F)(F)F)c1 [Compound 64, N-(Oxazol-2-yl)-2-(2,2,2-trifluoroethoxy)isonicotinamide]	8 (≈ 27.9 µM)	8 (≈ 27.9 µM)	2 (≈ 6.96 µM)	4 (≈ 13.9 µM)	–	–	–	–	–	–	2
O=C(Nc1ncco1)c1ccnc(-c2ccc(Cl)cc2)c1 [Compound 32, 2-(4-Chlorophenyl)-N-(oxazol-2-yl)isonicotinamide]	2 (≈ 6.67 µM)	1 (≈ 3.34 µM)	0.5 (≈ 1.67 µM)	1 (≈ 3.34 µM)	–	–	–	–	–	–	2
C#CCCCCCOC(=O)c1ccc2oc(NC(=O)c3cc(Oc4ccc(F)c(F)c4)ccn3)nc2c1 [Compound 117, Hept-6-yn-1-yl 2-(4-(3,4-difluorophenoxy)picolinamido)benzo[d]oxazole-5-carboxylate]	128 (≈ 253 µM)	32 (≈ 63.3 µM)	–	–	–	–	–	–	–	–	–
O=C(Nc1ncco1)c1ccnc(Oc2ccc(OC(F)(F)F)cc2)c1 [Compound 104, N-(Oxazol-2-yl)-2-(4-(trifluoromethoxy)phenoxy)isonicotinamide]	16 (≈ 43.8 µM)	1 (≈ 2.74 µM)	–	–	–	–	–	–	–	–	–
O=C(Nc1ncco1)c1ccnc(Oc2ccc(F)c(Cl)c2)c1 [Compound 101, 2-(3-Chloro-4-fluorophenoxy)-N-(oxazol-2-yl)isonicotinamide]	2 (≈ 5.99 µM)	1 (≈ 3 µM)	–	–	–	–	–	–	–	–	–
O=C(Nc1ncco1)c1cc(-c2ccc(F)c(Cl)c2)ccn1 [Compound 91, 4-(3-Chloro-4-fluorophenyl)-N-(oxazol-2-yl)picolinamide]	≥ 128	≥ 128	0.25 (≈ 0.787 µM)	128 (≈ 403 µM)	–	–	–	–	–	–	512
O=C(Nc1nc2ccccc2o1)c1ccnc(-c2ccc(Cl)c(Cl)c2)c1 [Compound 21, N-(benzo[d]oxazol-2-yl)-2-(3,4-dichlorophenyl)isonicotinamide]	16 (≈ 41.6 µM)	16 (≈ 41.6 µM)	–	–	–	–	–	–	1 (≈ 2.6 µM)	1 (≈ 2.6 µM)	–
O=C(Nc1ncco1)c1cccc(-c2ccc(F)cc2)n1 [Compound 79, 6-(4-Fluorophenyl)-N-(oxazol-2-yl)picolinamide]	–	–	≥ 16	32 (≈ 113 µM)	–	–	–	–	–	–	≤ 2
O=C(Nc1ncco1)c1cc(-c2ccc(F)c(F)c2)ncc1F [Compound 72, 2-(3,4-Difluorophenyl)-5-fluoro-N-(oxazol-2-yl)isonicotinamide]	–	–	0.5 (≈ 1.57 µM)	4 (≈ 12.5 µM)	–	–	–	–	–	–	8
C#CCCCCCOC(=O)c1cnc(NC(=O)c2ccnc(-c3ccc(Cl)c(Cl)c3)c2)o1 [Compound 25, Hept-6-yn-1-yl 2-(2-(3,4-dichlorophenyl)isonicotinamido)oxazole-5-carboxylate]	–	–	–	–	–	–	–	–	0.25 (≈ 0.529 µM)	0.06 (≈ 0.127 µM)	–

Further lines, with some results ahead:

MIC (E. faecium NCTC7171) [µg/mL]	MIC (S. aureus ATCC29213) [µg/mL]	MIC (C. difficile; Table 3 (SAR^2 and SAR^3)) [µg/mL]	MIC (MRSA (NRS70, NRS119); Table 3 (SAR^2 and SAR^3)) [µg/mL]	Activity (MIC) against E. faecium (E. faecium NCTC7171; Table 10, unit not given)	MIC C. difficile (C. difficile; ATCC 43255, ribotype 087, Table 2 (SAR^1)) [µg/mL]	MIC MRSA (MRSA (NRS70, NRS119); Table 2 (SAR^1)) [µg/mL]	Activity (MIC) against S. aureus (S. aureus ATCC29213; Table 10, unit not given)	MIC (C. difficile; Table 2 (SAR^1)) [µg/mL]	MIC (MRSA (NRS70, NRS119); Table 2 (SAR^1)) [µg/mL]	SMILES	Selectivity (C. difficile)
2 (≈ 6.33 µM)	1 (≈ 3.17 µM)	–	–	–	–	–	–	–	–	O=C(Nc1ncco1)c1ccnc(Oc2cccc(Cl)c2)c1 [Compound 100, 2-(3-Chlorophenoxy)-N-(oxazol-2-yl)isonicotinamide]	–
1 (≈ 3.32 µM)	4 (≈ 13.3 µM)	1 (≈ 3.32 µM)	2 (≈ 6.64 µM)	–	–	–	–	–	–	O=C(Nc1ncco1)c1ccnc(-c2ccc(F)c(F)c2)c1 [Compound 35, 2-(3,4-Difluorophenyl)-N-(oxazol-2-yl)isonicotinamide]	2
2 (≈ 5.99 µM)	1 (≈ 3 µM)	–	–	–	–	–	–	–	–	O=C(Nc1ncco1)c1ccnc(Oc2ccc(Cl)c(F)c2)c1 [Compound 102, 2-(4-Chloro-3-fluorophenoxy)-N-(oxazol-2-yl)isonicotinamide]	–
0.06 (≈ 0.18 µM)	0.06 (≈ 0.18 µM)	0.0625 (≈ 0.187 µM)	0.0625 (≈ 0.187 µM)	–	–	–	–	–	–	O=C(Nc1ncco1)c1ccnc(-c2cc(Cl)cc(Cl)c2)c1 [Compound 41, 2-(3,5-Dichlorophenyl)-N-(oxazol-2-yl)isonicotinamide]	1
2 (≈ 5.73 µM)	0.5 (≈ 1.43 µM)	0.125 (≈ 0.358 µM)	1 (≈ 2.86 µM)	–	–	–	–	–	–	O=C(Nc1ncco1)c1ccnc(-c2ccc(OC(F)(F)F)cc2)c1 [Compound 46, N-(Oxazol-2-yl)-2-(4-(trifluoromethoxy)phenyl)isonicotinamide]	8
0.25 (≈ 0.718 µM)	0.06 (≈ 0.172 µM)	–	–	–	–	–	–	0.25 (≈ 0.718 µM)	0.06 (≈ 0.172 µM)	Cc1coc(NC(=O)c2ccnc(-c3ccc(Cl)c(Cl)c3)c2)n1 [Compound 14, 2-(3,4-Dichlorophenyl)-N-(4-methyloxazol-2-yl)isonicotinamide]	–
1 (≈ 3.15 µM)	0.5 (≈ 1.57 µM)	0.25 (≈ 0.787 µM)	0.25 (≈ 0.787 µM)	–	–	–	–	–	–	O=C(Nc1ncco1)c1ccnc(-c2ccc(F)c(Cl)c2)c1 [Compound 40, 2-(3-Chloro-4-fluorophenyl)-N-(oxazol-2-yl)isonicotinamide]	1
0.5 (≈ 1.57 µM)	0.25 (≈ 0.787 µM)	0.12 (≈ 0.378 µM)	0.0625 (≈ 0.197 µM)	–	–	–	–	–	–	O=C(Nc1ncco1)c1ccnc(-c2cc(F)cc(Cl)c2)c1 [Compound 43, 2-(3-Chloro-5-fluorophenyl)-N-(oxazol-2-yl)isonicotinamide]	0.5
1 (≈ 2.86 µM)	1 (≈ 2.86 µM)	–	–	–	–	–	–	–	–	O=C(Nc1ncco1)c1ccnc(Oc2cccc(C(F)(F)F)c2)c1 [Compound 103, N-(Oxazol-2-yl)-2-(3-(trifluoromethyl)phenoxy)isonicotinamide]	–
1 (≈ 2.84 µM)	0.5 (≈ 1.42 µM)	0.25 (≈ 0.71 µM)	2 (≈ 5.68 µM)	–	–	–	–	–	–	O=C(Nc1ncco1)c1ccnc(-c2ccc(Cl)c(Cl)c2)c1F [Compound 66, 2-(3,4-Dichlorophenyl)-3-fluoro-N-(oxazol-2-yl)isonicotinamide]	8
0.5 (≈ 1.57 µM)	0.25 (≈ 0.787 µM)	0.125 (≈ 0.393 µM)	0.0625 (≈ 0.197 µM)	–	–	–	–	–	–	O=C(Nc1ncco1)c1ccnc(-c2ccc(Cl)c(F)c2)c1 [Compound 39, 2-(4-Chloro-3-fluorophenyl)-N-(oxazol-2-yl)isonicotinamide]	0.5
1 (≈ 2.86 µM)	0.25 (≈ 0.716 µM)	0.25 (≈ 0.716 µM)	0.0625 (≈ 0.179 µM)	–	–	–	–	–	–	O=C(Nc1ncco1)c1ccnc(-c2cccc(OC(F)(F)F)c2)c1 [Compound 47, N-(Oxazol-2-yl)-2-(3-(trifluoromethoxy)phenyl)isonicotinamide]	0.25
0.5 (≈ 1.42 µM)	0.25 (≈ 0.71 µM)	0.125 (≈ 0.355 µM)	0.0625 (≈ 0.177 µM)	–	–	–	–	–	–	O=C(Nc1ncco1)c1cc(-c2ccc(Cl)c(Cl)c2)ncc1F [Compound 70, 2-(3,4-Dichlorophenyl)-5-fluoro-N-(oxazol-2-yl)isonicotinamide]	0.5
